Test results: patent US12624017B2, “Salt form of isoquinolinone type compound as rock inhibitor and preparation method therefor” (GUANGZHOU OCUSUN OPHTHALMIC BIOTECHNOLOGY CO., LTD., priority 2020, dated 2026)

What was measured:
[1] = tested on: New Zealand rabbits suffered with acute intraocular hypertension; experiment: Intraocular pressure reduction test in acute intraocular hypertension model; type: in vivo, New Zealand white rabbits; conditions: for Intraocular pressure in left eye: 4 mg/mL group, left eye (solvent only); for Intraocular pressure in right eye: 4 mg/mL, 50 μL, right eye (modelled, dosed)
From the text: Acute intraocular hypertension was induced for rabbits by injection of a viscoelastic agent into the anterior chamber, and the effects of ocular pressure reduction of the compound of formula (I) were inspected by administration of eye drops at different concentrations.
Male New Zealand white rabbits, aged 97 to 127 days, weighted 2.5 to 3.4 kg, purchased from Pizhou Oriental Breeding Co., Ltd.
50 male New Zealand white rabbits were randomly divided into 5 groups according to body weight, 10 rabbits/group. The anterior chambers of the right eyes of animals in Groups 1 to 5 were injected with medical sodium hyaluronate gel in a single dose, 100 μL/eye, to induce ocular hypertension in the animals. In 5 to 15 min after molding, the right eye was administrated dropwise with the solvent, K-115, and the test article (compounds of formula (I) of different concentrations), and the left eye was administrated dropwise with the solvent, 50 μL/eye; and the intraocular pressures of the animals in both eyes were measured before administration, as well as at 2, 4, 6, 8, and 10 h after administration, respectively.

[2] = tested on: New Zealand rabbits with normal intraocular pressure; experiment: Intraocular pressure reduction, normal intraocular pressure, eye drops in both eyes for 14 days (Operation I); type: in vivo, New Zealand white rabbits; conditions: for Change in intraocular pressure: vs negative control
From the text: An intraocular pressure reduction effect and potential ocular toxicity of the compound of formula (I) were inspected with rabbits with normal intraocular pressure by repeated administration of eye drops for 14 days.
Male New Zealand white rabbits, aged 97 to 127 days, weighted 2.6-3.5 kg, purchased from Pizhou Oriental Breeding Co., Ltd.
The Male New Zealand white rabbits were randomly divided into 7 groups according to body weights, 6 rabbits/group. The animals in Groups 1 to 7 were administrated dropwise with a solvent/control/test article in both eyes in an administration volume of 50 μL/eye, once a day for 14 consecutive days, and the day of first administration was recorded as Day 1. The intraocular pressures of the animals were measured before administration, as well as at 1, 2, 4, 6, 8 and 10 h after administration, respectively. On Days 2 to 14, the intraocular pressures of animals in the K-115 administration group were measured at 1 h after daily administration; and intraocular pressures of the animals in the remaining groups were measured at 4 h after daily administration.

[3] = 4 mg/mL once a day, Day 2, 1 h after daily administration
[4] = 4 mg/mL once a day, Day 3, 1 h after daily administration
[5] = 4 mg/mL once a day, Day 4, 1 h after daily administration
[6] = 4 mg/mL once a day, Day 5, 1 h after daily administration
[7] = 4 mg/mL once a day, Day 6, 1 h after daily administration
[8] = 4 mg/mL once a day, Day 7, 1 h after daily administration
[9] = 4 mg/mL once a day, Day 8, 1 h after daily administration
[10] = 4 mg/mL once a day, Day 9, 1 h after daily administration
[11] = 4 mg/mL once a day, Day 10, 1 h after daily administration
[12] = 4 mg/mL once a day, Day 11, 1 h after daily administration
[13] = 4 mg/mL once a day, Day 12, 1 h after daily administration
[14] = 4 mg/mL once a day, Day 13, 1 h after daily administration
[15] = 4 mg/mL once a day, Day 14, 1 h after daily administration
[16] = 4 mg/mL, Day 1, 1 h after administration
[17] = 4 mg/mL, Day 1, 2 h after administration
[18] = 4 mg/mL, Day 1, 4 h after administration
[19] = 4 mg/mL, Day 1, 6 h after administration
[20] = 4 mg/mL, Day 1, 8 h after administration
[21] = 4 mg/mL, Day 1, 10 h after administration
[22] = 4 mg/mL, Day 1, before administration

## C[C@H]1CNCCCN1S(=O)(=O)c1cccc2cncc(F)c12 [K-115, reference compound]
[1]; 2 h after administration
  Intraocular pressure in left eye: 6.50 mmHg
  Intraocular pressure in right eye: 8.20 mmHg
[1]; 4 h after administration
  Intraocular pressure in left eye: 8.54 mmHg
  Intraocular pressure in right eye: 11.27 mmHg
[1]; 6 h after administration
  Intraocular pressure in left eye: 11.40 mmHg
  Intraocular pressure in right eye: 15.07 mmHg
[1]; 8 h after administration
  Intraocular pressure in left eye: 13.20 mmHg
  Intraocular pressure in right eye: 15.57 mmHg
[1]; 10 h after administration
  Intraocular pressure in left eye: 13.37 mmHg
  Intraocular pressure in right eye: 16.47 mmHg
[1]; before administration
  Intraocular pressure in left eye: 11.80 mmHg
  Intraocular pressure in right eye: 11.77 mmHg
[2]; [3]
  Average intraocular pressure in both eyes: 6.83 mmHg
  Change in intraocular pressure: 4.25 mmHg
[2]; [4]
  Average intraocular pressure in both eyes: 6.81 mmHg
  Change in intraocular pressure: 3.58 mmHg
[2]; [5]
  Average intraocular pressure in both eyes: 6.92 mmHg
  Change in intraocular pressure: 3.69 mmHg
[2]; [6]
  Average intraocular pressure in both eyes: 6.67 mmHg
  Change in intraocular pressure: 4.3 mmHg
[2]; [7]
  Average intraocular pressure in both eyes: 6.75 mmHg
  Change in intraocular pressure: 2.56 mmHg
[2]; [8]
  Average intraocular pressure in both eyes: 7.39 mmHg
  Change in intraocular pressure: 2.67 mmHg
[2]; [9]
  Average intraocular pressure in both eyes: 7.53 mmHg
  Change in intraocular pressure: 3.78 mmHg
[2]; [10]
  Average intraocular pressure in both eyes: 7.78 mmHg
  Change in intraocular pressure: 1.66 mmHg
[2]; [11]
  Average intraocular pressure in both eyes: 7.94 mmHg
  Change in intraocular pressure: 1.81 mmHg
[2]; [12]
  Average intraocular pressure in both eyes: 7.94 mmHg
  Change in intraocular pressure: 1.75 mmHg
[2]; [13]
  Average intraocular pressure in both eyes: 7.89 mmHg
  Change in intraocular pressure: 1.64 mmHg
[2]; [14]
  Average intraocular pressure in both eyes: 8.25 mmHg
  Change in intraocular pressure: 3.14 mmHg
[2]; [15]
  Average intraocular pressure in both eyes: 8.50 mmHg
  Change in intraocular pressure: 2.47 mmHg
[2]; [16]
  Average intraocular pressure in both eyes: 7.72 mmHg
  Change in intraocular pressure: 2.59 mmHg
[2]; [17]
  Average intraocular pressure in both eyes: 9.00 mmHg
  Change in intraocular pressure: 1.97 mmHg
[2]; [18]
  Average intraocular pressure in both eyes: 9.67 mmHg
  Change in intraocular pressure: 1.64 mmHg
[2]; [19]
  Average intraocular pressure in both eyes: 10.56 mmHg
  Change in intraocular pressure: 1.38 mmHg
[2]; [20]
  Average intraocular pressure in both eyes: 10.28 mmHg
  Change in intraocular pressure: 2.69 mmHg
[2]; [21]
  Average intraocular pressure in both eyes: 12.81 mmHg
  Change in intraocular pressure: 1.61 mmHg
[2]; [22]
  Average intraocular pressure in both eyes: 10.83 mmHg
  Change in intraocular pressure: −0.94 mmHg
